Ten compounds from PubChem BioAssay (NCI) can be followed below.

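Briefly, cells in 96-well plates were exposed to five compound concentrations for 48 h, and endpoints were estimated by linear interpolation. GI50 is the concentration that inhibits growth by half. At the TGI there is no net growth.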

Common to all, as to assay: inhibition of tumour cell growth, NCI panel, 48 h
In assay [1] the test system is SK-MEL-28 melanoma.
Assay [2] has as its system IGROV1 ovarian.
Assay [3] deals with A498 renal.
The subject of assay [4] is COLO 205 colon.
The subject of assay [5] is DU-145 prostate.
The test system of assay [6] is SW-620 colon.
For assay [7], the system named is MALME-3M melanoma.
Assay [8] has as its system HOP-92 NSCLC.

`Nc1ncnc2c1c(-c1ccc(Oc3ccccc3)cc1)nn2C[C@@H]1SSC[C@@H]1O`: the GI50 in assay [1] is 0.0824 µM; in assay [2], 0.839 µM; in assay [3], 2.01 µM; in assay [4], 1.58 µM; in assay [5] it was 1.36 µM; in assay [6], 432 nM. The GI50 in assay [7] is 0.445 µM; in assay [8], 1.62 µM. Also, the TGI was 0.484 µM in assay [1]; 3.26 µM in assay [2]; 5.35 µM in assay [3]; 4.7 µM in assay [4]; 4.02 µM in assay [5]; greater than 84 µM in assay [6]. Further, the TGI in assay [7] was 2.24 µM; in assay [8], 6.04 µM.
As to `O=C(O)C1C2C=CC(O2)C1C(=O)Nc1ncccn1` (stereo not drawn), the TGI in assay [1], in assay [2], in assay [3], in assay [4], in assay [5] and in assay [6] was greater than 100 µM throughout. In addition, the TGI in assay [7] and in assay [8] was greater than 100 µM throughout.
With `O=C(O)Cn1ccnc1[N+](=O)[O-]`, the TGI in assay [1], in assay [2], in assay [3], in assay [4], in assay [5] and in assay [6] was greater than 100 µM in each case. Further, the TGI in assay [7] and in assay [8] was greater than 100 µM in each case.
`COc1cc2cc(Oc3ccc(NC(=O)c4cccc5c4OCCO5)cc3)c(C)nc2cc1OC`: the GI50 in assay [1] is 19.2 µM; in assay [2] it was 64.5 µM; in assay [3] it was 2.06 µM; in assay [4], 4.95 µM; in assay [5], 25.7 µM; in assay [6], 49900 nM. The GI50 in assay [7] was 8.76 µM; in assay [8], 3.93 µM. For the same compound, the TGI in assay [1] was greater than 100 µM; in assay [2], greater than 100 µM; in assay [3], 68.4 µM; in assay [4], greater than 100 µM; in assay [5], greater than 100 µM; in assay [6], greater than 100 µM. For the same compound, the TGI in assay [7] was greater than 100 µM; in assay [8], 30.6 µM.
On to `O=C(Cc1ccc(/C=C/C(=O)c2ncc[nH]2)cc1)Nc1ccc(C(F)(F)F)cc1`, for which the GI50 was 5.32 µM in assay [1]; 3.84 µM in assay [2]; 4.73 µM in assay [3]; 5.38 µM in assay [4]; 2.13 µM in assay [5]; 1350 nM in assay [6]. In addition, the GI50 in assay [7] was 5.18 µM; in assay [8], 4.89 µM. Further, the TGI in assay [1] was 11.1 µM; in assay [2], 15.9 µM; in assay [3], 10 µM; in assay [4], 11.8 µM; in assay [5], 6.3 µM; in assay [6] it was 5.17 µM. The TGI in assay [7] came out at 12.9 µM; in assay [8] it was 11.1 µM.
For the compound `COc1ccc(/C=C(/C(=O)n2cnnn2)c2cc(OC)c(OC)c(OC)c2)cc1`, the GI50 in assay [1] was 7.37 µM; in assay [2], 4.69 µM; in assay [3] it was 4.26 µM; in assay [4], 2.92 µM; in assay [5] it was 3.5 µM; in assay [6], 3780 nM. Besides, the GI50 in assay [7] was 7.75 µM; in assay [8] it was 6.71 µM. Besides, the TGI in assay [1] was greater than 100 µM; in assay [2], greater than 100 µM; in assay [3], greater than 100 µM; in assay [4] it was 7.21 µM; in assay [5] it was greater than 100 µM; in assay [6], greater than 100 µM. The TGI in assay [7] and in assay [8] was greater than 100 µM in each case.
In the case of `O=C(CCN1CCCC1)Nc1ccc2c(Nc3ccccc3)c3ccccc3nc2c1`, the GI50 in assay [1] was 1.6 µM; in assay [2] it was 0.474 µM; in assay [3] it was 0.864 µM; in assay [4] it was 0.787 µM; in assay [5] it was 0.172 µM; in assay [6] it was 232 nM. In addition, the GI50 in assay [7] is 1.46 µM; in assay [8] it was 0.432 µM. Further, the TGI in assay [1] was 3.06 µM; in assay [2], 3.02 µM; in assay [3] it was 2.22 µM; in assay [4], 2.49 µM; in assay [5] it was 1.64 µM; in assay [6] it was 1.87 µM. In addition, the figures for the TGI in assay [7] and in assay [8] were 2.83 µM and 2.26 µM, respectively.
For `O=C(O)C1C(C(=O)O)C2(Cl)C(Cl)=C(Cl)C1(Cl)C2(Cl)Cl.[Cd]` (stereo not drawn), the GI50 in assay [1] was 24.1 µM; in assay [2] it was 17.7 µM; in assay [3], greater than 100 µM; in assay [4], 20.5 µM; in assay [5] it was 17.8 µM; in assay [6] it was 23100 nM. The GI50 was 2.33 µM in assay [7] and 19.2 µM in assay [8]. The TGI in assay [1] is 54.7 µM; in assay [2], 34.2 µM; in assay [3], greater than 100 µM; in assay [4] it was 38.6 µM; in assay [5], 34.5 µM; in assay [6], 77.1 µM. Besides, the TGI in assay [7] amounted to 7.05 µM; in assay [8], 34.8 µM.
Turning to `COc1ccc(C2ONC3=NCCN32)cc1` (stereo not drawn), the GI50 was greater than 100 µM in assay [1]; 73.2 µM in assay [2]; greater than 100 µM in assay [3]; 45.9 µM in assay [4]; 70.3 µM in assay [5]; 46800 nM in assay [6]. In addition, the results for the GI50 in assay [7] and in assay [8] were greater than 100 µM and 40.8 µM, respectively. The TGI in assay [1], in assay [2], in assay [3], in assay [4], in assay [5] and in assay [6] was greater than 100 µM each time. The TGI in assay [7] and in assay [8] was greater than 100 µM each time.
For the compound `COc1cc2nnn3c4ncccc4c(N=O)c3c2cc1OC`, the GI50 in assay [1] was 9.1 µM; in assay [2], 0.896 µM; in assay [3], 15.1 µM; in assay [4], 8.21 µM; in assay [5] it was 3.02 µM; in assay [6], 312 nM. Also, the GI50 is 3.04 µM in assay [7] and 0.0657 µM in assay [8]. Besides, the TGI was greater than 100 µM in assay [1]; greater than 37 µM in assay [2]; 35.3 µM in assay [3]; 31.2 µM in assay [4]; 12.5 µM in assay [5]; greater than 100 µM in assay [6]. The same compound showed a TGI in assay [7] of 17.2 µM.
